Laboratory results: US20120004228A1, “Bis Aromatic Compounds for Use as LTC4 Synthase Inhibitors” (BIOLIPOX AB, priority 2009, published 2012)

Target: T1, Recombinant human LTC4 synthase (Homo sapiens, UniProt Q16873)
T1 construct: made in house; host or cells: Pichia pastoris ('Piccia pastoralis' [sic])
T1 sequence (Q16873 1-150): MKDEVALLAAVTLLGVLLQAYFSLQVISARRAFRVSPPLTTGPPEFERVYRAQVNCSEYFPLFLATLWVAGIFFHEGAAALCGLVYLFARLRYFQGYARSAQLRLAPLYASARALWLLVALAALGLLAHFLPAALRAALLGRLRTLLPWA
Experiment: In vitro LTC4 synthase assay (LTA4 to LTC4, HTRF detection)
Type: biochemical
Settings: not given
Protocol: In the assay, LTC4 synthase catalyses the reaction where the substrate LTA4 is converted to LTC4. Recombinant human LTC4 synthase is expressed in Piccia pastoralis and the purified enzyme is dissolved in 25 mM tris-buffer pH 7.8 supplemented with 0.1 mM glutathione (GSH) and stored at −80° C. The assay is performed in phosphate buffered saline (PBS) pH 7.4 and 5 mM GSH in 384-well plates.
The following is added chronologically to each well:
1. 48 μL LTC4 synthase in PBS with 5 mM GSH. The total protein concentration in this solution is 0.5 μg/mL. 2. 1 μL inhibitor in DMSO (final concentration 10 μM). 3. Incubation of the plate at room temperature for 10 min. 4. 1 μL LTA4 (final concentration 2.5 μM). 5. Incubation of the plate at room temperature for 5 min. 6. 10 μL of the incubation mixture is analysed using homogenous time resolved fluorescent (HTRF) detection.

| SMILES | IC50 [nM] |
| --- | --- |
| C=CCCC(=O)N(c1ccccc1)c1cc(C(=O)O)cc(C(=O)c2ccc(N(C)c3ccc(Cl)cc3)cc2)c1 [10:32, 3-{4-[(4-Chlorophenyl)(methyl)amino]benzoyl}-5-[(N-phenyl)pent-4-enamido]-benzoic acid] | 662 |
| CN(c1ccc(Cl)cc1)c1ccc(C(=O)c2cc(Oc3ccccc3)cc(C(=O)O)c2)nc1 [Example 8:1, 3-{5-[(4-Chlorophenyl)(methyl)aminol]picolinoyl}-5-phenoxybenzoic acid] | 67 |
| CN(c1ccc(Cl)cc1)c1ccc(C(=O)c2cc(C(=O)O)cc(N(CCCCO)c3ccccc3)c2)nc1 [9:45, 3-{5-[(4-Chlorophenyl)(methyl)amino]picolinoyl}-5-[(4-hydroxybutyl)(phenyl)-amino]benzoic acid] | 25 |
| CN(c1ccc(Cl)cc1)c1ccc(C(=O)c2ccc(Nc3ccc(Cl)cc3)cc2)c(C(=O)O)c1 [6:3, 2-[4-(4-Chlorophenylamino)benzoyl]-5-[(4-chlorophenyl)(methyl)amino]-benzoic acid] | 224 |
| CC(=O)N(c1cc(C(=O)O)cc(C(=O)c2ccc(N(C)c3ccc(Cl)cc3)cn2)c1)C1CCCCC1 [9:43, 3-{5-[(4-Chlorophenyl)(methyl)amino]picolinoyl}-5-(N-cyclohexylacetamido)-benzoic acid] | 1820 |
| CN(c1ccc(Cl)cc1)c1ccc(C(=O)c2cc(C(=O)O)cc(N(CC3OCCO3)c3ccccc3)c2)cc1 [10:29, 3-{[(1,3-Dioxolan-2-yl)methyl](phenyl)amino}-5-{4-[(4-chlorophenyl)(methyl)-amino]benzoyl}benzoic acid] | 40 |
| CN(c1ccc(Cl)cc1)c1ccc(C(=O)c2ccc(NC(=O)c3cccc(Cl)c3)cc2)c(C(=O)O)c1 [Example 4:2, 2-[4-(3-Chlorobenzamido)benzoyl]-5-[(4-chlorophenyl)(methyl)amino)-benzoic acid] | 703 |
| CCOCCN(c1ccccc1)c1cc(C(=O)O)cc(C(=O)c2ccc(N(C)c3ccc(Cl)cc3)cn2)c1 [9:47, 3-{5-[(4-Chlorophenyl)(methyl)amino]picolinoyl}-5-[(2-ethoxyethyl)(phenyl)-amino]benzoic acid] | 60 |
| CN(c1ccc(Cl)cc1)c1ccc(C(=O)c2cc(OCc3ccccc3)cc(C(=O)O)c2)nc1 [11:2, 3-Benzyloxy-5-{5-[(4-chlorophenyl)(methyl)amino]picolinoyl}benzoic acid] | 462 |
| CN(c1ccc(Cl)cc1)c1ccc(C(=O)c2cc(C(=O)O)cc(N3CCOCC3)c2)nc1 [9:36, 3-{5-[(4-Chlorophenyl)(methyl)amino]picolinoyl}-5-(4-morpholinyl)benzoic acid] | 1000 |
| COc1ccc(CN(C)c2cc(C(=O)O)cc(C(=O)c3ccc(N(C)c4ccc(Cl)cc4)cn3)c2)cc1 [9:9, 3-{5-[(4-Chlorophenyl)(methyl)amino]picolinoyl}-5-[(4-methoxybenzyl)(methyl)-amino]benzoic acid] | 123 |
| CN(c1ccc(Cl)cc1)c1ccc(C(=O)c2cc(C(=O)O)cc(N(C(=O)CC3CCCC3)c3ccccc3)c2)cc1 [10:39, 3-{4-[(4-Chlorophenyl)(methyl)amino]benzoyl}-5-[2-cyclopentyl-(N-phenyl)-acetamido]benzoic acid] | 192 |
| CN(c1ccc(Cl)cc1)c1ccc(C(=O)c2cc(C(=O)O)cc(N(CC(C)(C)O)c3ccccc3)c2)nc1 [Example 9:27, 3-{5-[(4-Chlorophenyl)(methyl)amino]picolinoyl}-5-[(2-hydroxy-2-methylpropyl)-(phenyl)amino]benzoic acid] | 31 |
| COc1cccc(COc2cc(C(=O)O)cc(C(=O)c3ccc(N(C)c4ccc(Cl)cc4)cn3)c2)c1 [11:3, 3-{5-[(4-Chlorophenyl)(methyl)amino]picolinoyl}-5-(3-methoxybenzyloxy)-benzoic acid] | 250 |
| COc1cccc(C(=O)Nc2cc(C(=O)O)cc(C(=O)c3ccc(N(C)c4ccc(Cl)cc4)cn3)c2)c1 [2:10, 3-{5-[(4-Chlorophenyl)(methyl)amino]picolinoyl}-5-(3-methoxybenzamido)-benzoic acid] | 412 |
| COc1ccccc1N(C(C)=O)c1cc(C(=O)O)cc(C(=O)c2ccc(N(C)c3ccc(Cl)cc3)cn2)c1 [9:24, 3-{5-[(4-Chlorophenyl)(methyl)amino]picolinoyl}-5-[N-(2-methoxyphenyl)-acetamido]benzoic acid] | 932 |

Further lines, results first:

| IC50 [nM] | SMILES |
| --- | --- |
| 40 | CN(c1ccc(Cl)cc1)c1ccc(C(=O)c2cc(C(=O)O)cc(N(C)c3ccccc3)c2)cc1 [Example 10:23, 5-{4-[(4-Chlorophenyl)(methyl)amino]benzoyl}-3-[methyl(phenyl)amino]benzoic acid] |
| 206 | CN(c1ccc(Cl)cc1)c1ccc(C(=O)c2cc(Nc3ccccc3OC(F)(F)F)cc(C(=O)O)c2)cc1 [10:4, 3-{4-[(4-Chlorophenyl)(methyl)amino]benzoyl}-5-(2-(trifluoromethoxy)-phenylamino)benzoic acid] |
| 61 | CN(c1ccc(Cl)cc1)c1ccc(C(=O)c2cc(Nc3ccccc3)cc(C(=O)O)c2)nc1 [9:11, 3-{5-[(4-Chlorophenyl)(methyl)amino]picolinoyl}-5-(phenylamino)benzoic acid] |
| 176 | CC(C)CN(c1ccccc1)c1cc(C(=O)O)cc(C(=O)c2ccc(N(C)c3ccc(Cl)cc3)cc2)c1 [10:35, 3-{4-[(4-Chlorophenyl)(methyl)amino]benzoyl}-5-[isobutyl(phenyl)amino]-benzoic acid] |
| 214 | CN(c1ccc(Cl)cc1)c1ccc(C(=O)c2cc(NC(=O)c3ccccc3)cc(C(=O)O)c2)nc1 [2:8, 3-Benzamido-5-{5-[(4-chlorophenyl)(methyl)amino]picolinoyl}benzoic acid] |
| 284 | Cc1ccccc1CNc1cc(C(=O)O)cc(C(=O)c2ccc(N(C)c3ccc(Cl)cc3)cc2)c1 [10:16, 3-{4-[(4-Chlorophenyl)(methyl)amino]benzoyl}-5-(2-methylbenzylamino)-benzoic acid] |
| 159 | CN(c1ccc(Cl)cc1)c1ccc(C(=O)c2cc(Nc3ccc(C(F)(F)F)cc3)cc(C(=O)O)c2)cc1 [10:17, 3-{4-[(4-Chlorophenyl)(methyl)amino]benzoyl}-5-(4-trifluoromethylphenyl-amino)benzoic acid] |
| 162 | CN(c1ccc(Cl)cc1)c1ccc(C(=O)c2cc(Nc3ccccc3F)cc(C(=O)O)c2)cc1 [10:9, 3-{4-[(4-Chlorophenyl)(methyl)amino]benzoyl}-5-(2-fluorophenylamino)-benzoic acid] |
| 171 | CN(c1ccc(Cl)cc1)c1ccc(C(=O)c2cc(Oc3cccc(OC(F)(F)F)c3)cc(C(=O)O)c2)cc1 [8:10, 3-{4-[(4-Chlorophenyl)(methyl)amino]benzoyl}-5-[3-(trifluoromethoxy)phenoxy]-benzoic acid] |
| 133 | CN(c1ccc(Cl)cc1)c1ccc(C(=O)c2cc(C(=O)O)cc(N(CC3(C)COC3)c3ccccc3)c2)cc1 [10:27, 3-{4-[(4-Chlorophenyl)(methyl)amino]benzoyl}-5-{[(3-methyloxetan-3-yl)-methyl](phenyl)amino}benzoic acid] |
| 353 | COc1ccc(Nc2cc(C(=O)O)cc(C(=O)c3ccc(N(C)c4ccc(Cl)cc4)cn3)c2)cc1 [9:32, 3-{5-[(4-Chlorophenyl)(methyl)amino]picolinoyl}-5-(4-methoxyphenylamino)-benzoic acid] |

Same assay, conditions: 5 min; total concentration of title compound in the assay 10 μM

| inhibition at 10 µM [%] | SMILES |
| --- | --- |
| 99 | CN(c1ccc(Cl)cc1)c1ccc(C(=O)c2ccc(Nc3ccc(Cl)cc3)cc2)c(C(=O)O)c1 [6:3, 2-[4-(4-Chlorophenylamino)benzoyl]-5-[(4-chlorophenyl)(methyl)amino]-benzoic acid] |
| 100 | CN(c1ccc(Cl)cc1)c1ccc(C(=O)c2ccc(NC(=O)c3cccc(Cl)c3)cc2)c(C(=O)O)c1 [Example 4:2, 2-[4-(3-Chlorobenzamido)benzoyl]-5-[(4-chlorophenyl)(methyl)amino)-benzoic acid] |
